Measured values reported in ChEMBL document CHEMBL1135208, “Syntheses and EGFR and HER-2 kinase inhibitory activities of 4-anilinoquinoline-3-carbonitriles: analogues of three important 4-anilinoquinazolines currently undergoing clinical evaluation as therapeutic antitumor agents” (Bioorg Med Chem Lett, 2002).
≈ marks a conversion by molar mass, not a printed value.

What was measured:
[1] = tested on: A-431; assay: cells; type: functional, cell-based; details: Homo sapiens
Description: Inhibition of A431 cell proliferation

[2] = tested on: SW-620; assay: cells; type: functional, cell-based; details: Homo sapiens
Description: Inhibition of SW-620 cell proliferation

[3] = tested on: SK-BR-3; assay: cells; type: functional, cell-based; details: Homo sapiens
Description: Inhibition of SKBR-3 cell proliferation

[4] = molecular target: Epidermal growth factor receptor (Homo sapiens, UniProt P00533)
Description: Inhibition of Epidermal Growth Factor Receptor (EGFR) autophosphorylation

[5] = molecular target: Receptor tyrosine-protein kinase erbB-2 (Homo sapiens, UniProt P04626)
Sequence of Receptor tyrosine-protein kinase erbB-2 (P04626 whole entry): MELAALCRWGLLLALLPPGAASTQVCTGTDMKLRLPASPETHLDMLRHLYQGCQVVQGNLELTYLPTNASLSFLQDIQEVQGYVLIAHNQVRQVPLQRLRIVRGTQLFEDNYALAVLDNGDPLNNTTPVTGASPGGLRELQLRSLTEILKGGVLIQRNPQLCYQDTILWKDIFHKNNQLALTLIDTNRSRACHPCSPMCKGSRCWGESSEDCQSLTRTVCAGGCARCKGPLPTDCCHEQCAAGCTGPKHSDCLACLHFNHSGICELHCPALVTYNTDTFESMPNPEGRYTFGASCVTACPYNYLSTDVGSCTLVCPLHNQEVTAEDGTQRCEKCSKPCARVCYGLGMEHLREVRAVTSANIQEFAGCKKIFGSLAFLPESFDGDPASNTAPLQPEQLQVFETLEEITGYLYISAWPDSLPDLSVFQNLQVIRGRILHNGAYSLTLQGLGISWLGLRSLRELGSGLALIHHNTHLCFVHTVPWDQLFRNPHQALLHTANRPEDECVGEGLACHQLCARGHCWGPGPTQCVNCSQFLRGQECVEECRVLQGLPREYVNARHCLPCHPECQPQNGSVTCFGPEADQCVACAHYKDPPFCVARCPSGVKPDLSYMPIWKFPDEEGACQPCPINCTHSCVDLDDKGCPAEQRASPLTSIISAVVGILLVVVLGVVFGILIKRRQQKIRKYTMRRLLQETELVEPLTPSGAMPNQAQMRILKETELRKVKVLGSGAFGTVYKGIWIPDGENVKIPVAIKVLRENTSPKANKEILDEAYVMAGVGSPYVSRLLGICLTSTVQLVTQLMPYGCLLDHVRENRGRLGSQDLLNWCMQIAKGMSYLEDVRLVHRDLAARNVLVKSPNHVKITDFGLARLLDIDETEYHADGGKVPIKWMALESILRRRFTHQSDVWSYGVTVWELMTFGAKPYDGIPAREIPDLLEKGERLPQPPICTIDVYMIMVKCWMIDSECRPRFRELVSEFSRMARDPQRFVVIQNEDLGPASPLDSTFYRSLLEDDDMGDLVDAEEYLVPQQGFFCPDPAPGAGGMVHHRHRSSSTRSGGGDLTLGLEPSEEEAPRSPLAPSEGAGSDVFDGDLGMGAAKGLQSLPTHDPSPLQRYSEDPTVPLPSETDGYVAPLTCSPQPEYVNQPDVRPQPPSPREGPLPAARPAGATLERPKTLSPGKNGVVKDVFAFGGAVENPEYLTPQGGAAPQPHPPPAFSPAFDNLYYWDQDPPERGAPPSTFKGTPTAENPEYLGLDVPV
Description: Inhibition of human epidermal growth factor receptor-2 autophosphorylation

Sequence of Epidermal growth factor receptor (P00533 whole entry): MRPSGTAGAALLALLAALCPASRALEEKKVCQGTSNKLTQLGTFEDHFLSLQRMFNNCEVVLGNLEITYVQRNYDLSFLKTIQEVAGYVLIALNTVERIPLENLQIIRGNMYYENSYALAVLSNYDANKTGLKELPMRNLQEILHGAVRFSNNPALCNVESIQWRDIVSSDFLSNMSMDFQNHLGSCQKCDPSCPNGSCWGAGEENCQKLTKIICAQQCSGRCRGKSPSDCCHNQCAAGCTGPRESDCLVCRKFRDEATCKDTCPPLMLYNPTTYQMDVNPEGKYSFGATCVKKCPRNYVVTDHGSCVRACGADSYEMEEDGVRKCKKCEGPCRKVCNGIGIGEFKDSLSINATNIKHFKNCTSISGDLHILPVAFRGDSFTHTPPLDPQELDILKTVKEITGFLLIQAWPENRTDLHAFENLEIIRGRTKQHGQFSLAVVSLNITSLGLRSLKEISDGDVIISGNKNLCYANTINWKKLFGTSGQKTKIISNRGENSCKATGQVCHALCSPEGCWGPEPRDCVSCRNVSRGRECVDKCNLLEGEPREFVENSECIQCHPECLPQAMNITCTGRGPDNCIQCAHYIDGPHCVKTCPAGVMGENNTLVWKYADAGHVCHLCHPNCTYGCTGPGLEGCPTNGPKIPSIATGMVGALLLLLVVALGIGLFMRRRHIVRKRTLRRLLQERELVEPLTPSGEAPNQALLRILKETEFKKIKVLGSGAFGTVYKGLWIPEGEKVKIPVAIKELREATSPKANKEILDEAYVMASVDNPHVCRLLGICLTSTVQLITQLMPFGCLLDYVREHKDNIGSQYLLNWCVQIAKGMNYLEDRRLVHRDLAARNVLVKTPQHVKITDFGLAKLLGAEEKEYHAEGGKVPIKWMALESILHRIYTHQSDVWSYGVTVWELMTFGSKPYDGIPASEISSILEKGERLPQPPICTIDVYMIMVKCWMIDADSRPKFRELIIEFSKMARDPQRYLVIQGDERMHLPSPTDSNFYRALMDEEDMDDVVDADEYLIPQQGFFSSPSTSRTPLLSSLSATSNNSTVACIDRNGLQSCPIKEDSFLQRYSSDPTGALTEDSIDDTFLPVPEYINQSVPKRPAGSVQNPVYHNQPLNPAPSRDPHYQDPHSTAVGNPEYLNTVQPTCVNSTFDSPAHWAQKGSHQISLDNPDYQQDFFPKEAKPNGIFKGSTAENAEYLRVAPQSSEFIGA

Row | IC50 [1] | IC50 [2] | IC50 [3] | IC50 [4] | IC50 [5] | SMILES
1 | 0.083 mg/L (≈ 0.171 µM) | 1.45 mg/L (≈ 2.98 µM) | 0.102 mg/L (≈ 0.21 µM) | – | – | C=CC(=O)Nc1cc2c(Nc3ccc(F)c(Cl)c3)ncnc2cc1OCCCN1CCOCC1 [CANERTINIB]
2 | 0.03 mg/L (≈ 0.0641 µM) | 0.317 mg/L (≈ 0.677 µM) | 0.007 mg/L (≈ 0.015 µM) | – | 1.23 µM | CCOc1cc2ncc(C#N)c(Nc3ccc(F)c(Cl)c3)c2cc1NC(=O)/C=C/CN(C)C [PELITINIB]
3 | 0.25 mg/L (≈ 0.531 µM) | > 5 mg/L | 0.332 mg/L (≈ 0.705 µM) | 1.04 µM | 14.7 µM | COc1cc2ncc(C#N)c(Nc3ccc(F)c(Cl)c3)c2cc1OCCCN1CCOCC1
4 | 0.173 mg/L (≈ 0.414 µM) | 0.68 mg/L (≈ 1.63 µM) | 0.071 mg/L (≈ 0.17 µM) | 0.85 µM | 11.8 µM | C#Cc1cccc(Nc2c(C#N)cnc3cc(OCCOC)c(OCCOC)cc23)c1

Row | SMILES | IC50 [1] | IC50 [2] | IC50 [3] | IC50 [4] | IC50 [5]
5 | C=CC(=O)Nc1cc2c(Nc3ccc(F)c(Cl)c3)c(C#N)cnc2cc1OCCCN1CCOCC1 | 0.12 mg/L (≈ 0.235 µM) | 0.77 mg/L (≈ 1.51 µM) | 0.03 mg/L (≈ 0.0588 µM) | 0.08 µM | 1.69 µM
